According to patent US10654805B2, “Pyridinethiones, pharmaceutical compositions thereof, and their therapeutic use for treating a proliferative, inflammatory, neurodegenerative, or immune-mediated disease” (BioTheryX, Inc., priority 2016, dated 2020):

How the values were obtained:
[1] = test system: myelin basic protein (MBP); assay: Induction of myelin basic protein (MBP) production in MO3-13 cells, slot blot with anti-MBP antibody; assay type: cell-based, human; details: with and without cuprizone; for relative MBP binding compared with vehicle control: MO3-13 cells, p<0.0001, FIG. 2; for relative MBP binding (anti-MBP antibody): MO3-13 whole cell extracts
Description: Whole cell extracts of MO3-13 cells were prepared using 6 M urea. An aliquot of 100 μL was removed and diluted with an equal volume of 6 M urea. A 5 μL aliquot was removed and quantitated for protein levels. Total protein concentrations were determined using the BioRad protein assay method at 595 nm. Total protein in the whole cell extracts was determined and a ratio of recovered protein was used to calculate the relative amount of MBP in the whole cell extracts. Whole cell extracts were diluted to 0.1 mg/mL. Extracts containing 2.5 μg of protein were applied onto nitrocellulose membrane in a slot blotter using a vacuum method to draw the sample onto the membrane. The non-protein sites on the membrane were blocked with 2% ECL blocking reagent diluted in PBS-Tween20. Primary anti-Bovine MBP was diluted in the same block solution at 300×. The primary antibody was incubated one hour at room temperature with gentle shaking. The blot was developed using enhanced ECL (GE Healthcare) method. Image of bound antibody were captured using Image Lab software driving a Bio-Rad ChemiDoc XRS+ image capture system. The data was graphically represented using Graph Pad Prism software.

[2] = Cuprizone model in mice: body weight, deaths and toxicity; assay type: in vivo
Description: (§1) The ability of compound A1 to effect the demyelination process was evaluated in a cuprizone model of demyelination in mice. Thirty-six male C57/B6 mice aged 7-8 weeks were acclimated for 1 week prior to study commencement and housed 2 mice per cage. Mice in Group 1 received control chow without cuprizone, and all other mice were fed mouse diet containing 0.2% cuprizone for 5 weeks. Food was changed every other day, body and food weights were obtained daily. All cuprizone and control food was stored in vacuum containers and stored frozen until use.
(§2) Dosing solutions were prepared fresh on each day of dosing. Compound A1 was first dissolved in DMSO in a volume of 10% of the final volume, followed by addition of solutol HS-15 in a volume of 10% of the final volume and a solution of 10% hydroxypropyl-β-cyclodextrin in a volume of 80% of the final volume. Unless otherwise noted, all test articles were administered in a volume of 0.1 mL/10 g body weight.
(§3) During this process, mice received either vehicle or compound A1 at 50 mg/kg or 100 mg/kg via intraperitoneal injection daily. At the end of 5 weeks, the mice were sacrificed and the brain histology of each group compared to controls that had not received cuprizone. Statistical differences between treatment groups were determined using Mann-Whitney Rank Sum or ANOVA tests with a critical value of 0.05.
All animals were weighed every day in order to assess possible differences in animal weight among treatment groups as an indication of possible toxicity resulting from the treatments. Animals with a weight loss of more than 20% of their starting weight were euthanized. Mice with weight loss of more than 15% of their starting weight were not treated again until weight loss recovered to less than 5% of their starting weight. […] One animal in the cuprizone/vehicle group was also euthanized on Day 20 due to poor condition and weight loss. All remaining mice survived until the end of the study.

C57/B6 mice = assay: Cuprizone model of demyelination in mice: brain myelination scores; assay type: in vivo
Description: as §1, §2, §3
(§4) Evaluation of the myelin content of the brains was focused on three areas—the rostral corpus callosum, the dorsal corpus callosum and the cerebellum. The extent of demyelination in both sagittal sections was determined by a board certified veterinary pathologist blinded to animal treatment. Percent demyelination was scored as follows: demyelination ranging from 0 to 10% of the total anatomical structure was scored as 0; demyelination ranging from 11 to 30% of the total anatomical structure was scored as 1; demyelination ranging from 31 to 60% of the total anatomical structure was scored as 2; demyelination ranging from 61 to 90% of the total anatomical structure was scored as 3; and demyelination ranging from 91 to 100% of the total anatomical structure was scored as 4. The extent of MBP staining intensity was based on a 1-4 scale, where 4 was the highest level of staining seen (100%).

[3] = test system: myelin basic protein (MBP); assay: Cuprizone model of demyelination in mice: MBP immunohistochemistry staining score; assay type: in vivo
Description: as §1, §2, §3, §4
In addition, immunohistochemistry was performed for myelin basic protein (MBP), and slides were analyzed for the intensity of MBP staining in the same regions. The mean rostral corpus callosum MBP staining score for the control groups was 4. In the vehicle treated group receiving cuprizone chow, the mean rostral corpus callosum m MBP staining score was 2.9. In the group receiving cuprizone chow and compound A1 at 50 mg/kg, the mean rostral corpus callosum MBP staining score was 3.2. Additional analysis of the rostral corpus callosum MBP staining was conducted using an ANOVA test.

## Cc1cc(C(F)(F)F)cc(=S)[nH]1 [A3, 6-methyl-4-trifluoromethylpyridine-2(1H)-thione]
[1]
  relative MBP binding compared with vehicle control: significantly increased above vehicle control
  relative MBP binding (anti-MBP antibody): elevated relative MBP binding

## Cc1cc(C2CCCCC2)[nH]c(=S)c1 [compound A1, 6-cyclohexyl-4-methylpyridine-2(1H)-thione]
[2]; 50 mg/kg IP QD, cuprizone food, 5 weeks
  average loss of starting weight during the study: 10.6%
[2]; 50 mg/kg daily, cuprizone treatment
  toxicity: no evidence of toxicity beyond that seen in the vehicle group
[2]; 100 mg/kg IP QD, cuprizone food, between Days 20 and 24, despite discontinuation of dosing
  mice that suddenly started to lose weight and die: nine often mice
C57/B6 mice; 50 mg/kg IP QD, cuprizone chow 5 weeks, not significant
  mean cerebellar myelination score: 3.2
C57/B6 mice; 50 mg/kg IP QD, cuprizone chow 5 weeks, not significant vs vehicle
  mean rostral corpus callosum myelination score: 2.1
C57/B6 mice; 50 mg/kg IP QD, cuprizone chow 5 weeks, p=0.0012 vs vehicle
  mean caudal corpus callosum myelination score: 2.1
C57/B6 mice; cuprizone mice
  demyelination in the rostral corpus callosum vs vehicle treated group: no statistically significant differences
C57/B6 mice; cuprizone mice, p=0.0012
  demyelination in the dorsal corpus callosum vs mice receiving vehicle: significantly less demyelination
[3]; 50 mg/kg IP QD, cuprizone chow 5 weeks, 1-4 scale, 4 highest, not significant
  mean cerebellum MBP staining score: 3.8
[3]; 50 mg/kg IP QD, cuprizone chow 5 weeks, 1-4 scale, 4 highest, not significant vs vehicle
  mean rostral corpus callosum MBP staining score: 3.2
[3]; 50 mg/kg IP QD, cuprizone chow 5 weeks, 1-4 scale, 4 highest, p=0.0064 vs vehicle
  mean caudal corpus callosum MBP staining score: 3.1
[3]; cuprizone mice
  MBP expression in the rostral corpus callosum vs vehicle treated group: no statistically significant differences
[3]; cuprizone mice, p=0.0064
  MBP expression in the dorsal corpus callosum vs mice receiving vehicle: significantly less demyelination
[1]
  relative MBP binding compared with vehicle control: significantly increased above vehicle control
  relative MBP binding (anti-MBP antibody): elevated relative MBP binding

## Cc1cc(CC(C)CC(C)(C)C)[nH]c(=S)c1 (stereo not drawn) [compound A2, 4-methyl-6-(2,4,4-trimethylpentyl)pyridine-2(1H)-thione]
[1]
  relative MBP binding (anti-MBP antibody): elevated relative MBP binding
